Paper PMC3853197 (PLoS ONE, 2013)
Like-named read-outs stand apart in the source and are kept apart here.

Columns and labels:
F. graminearum PH-1 = format: cell-based, Fusarium graminearum
[1] = system: F. graminearum conidia and hyphae; format: cell-based, Fusarium graminearum

Substance	IC100: amount of protein required to inhibit F. graminearum conidial germination completely (F. graminearum PH-1)	binding to the surface of fungal hyphae [1]	entry into fungal cells [1]	antifungal activity (F. graminearum PH-1; 96 µM)	antifungal activity compared with TMR-GMA4-C (F. graminearum PH-1; 16 h)	antifungal activity of labeled compared with untagged/unlabeled protein or peptide (F. graminearum PH-1)	antifungal activity (F. graminearum PH-1; 24 µM)
GRCRGFRRRCFCTTHC [GMA4-C]	< 6 µM						
RTCENLADKYRGPCFSGCDTHCTTKENAVSGRCRDDFRCWCTKRC [MsDef1, reference compound]	>6 µM						
TAM-GRCAAAARRCFCTTHC [TMR-GMA4-CM]	>96 µM	failed to bind	no indication of entry into fungal cells	no antifungal activity	significantly lower antifungal activity		
TAM-GRCRGFRRRCFCTTHC [TMR-GMA4-C]	48 µM		entered the cytoplasm			considerably less antifungal activity	significant growth inhibition
